In patent US7531195B2, “Schisandrin B preparation” (priority 2005, dated 2009):

Assays:
Assay type in all cases: cell-based, rat
H9c2 cells [1] = assay: Cellular GSH level in H9c2 cells, time course, with or without xanthine/xanthine oxidase (X/XO) challenge; settings: 6.25 μM
Method: (§1) H9c2 cells, a permanent cell line derived from cardiac myoblasts of rat embryo, have early been characterized as a suitable model of myocardial cells [Hescheler et al. 1991]. H9c2 cells were cultured as monolayers in Dulbecco's modified Eagle's medium (GIBCO BRL) supplemented with 10% (v/v) fetal bovine serum. The medium contained glucose (4.5 g/L) and glutamine (4.5 mM), supplemented with NaHCO3 (17 mM), penicillin (100 IU/ml), and streptomycin (100 μg/ml). Cells were grown under an atmosphere of 5% CO2 in air at 37° C. The medium was replaced by fresh medium every 2 or 3 days. A stock of cells was grown in a 75 cm culture flask and split before confluence at a subcultivation ratio of 1:10. Cells used for experiments were seeded at a density of 3.75×10^4 cells/well on a 12-well culture plate, and the cells were grown for 24 h to about 80% confluence prior to drug treatment.
(§2) Cultured H9c2 cells were treated with (−) Schisandrin B, (+) Schisandrin B or (±) Schisandrin B (dissolved in DMSO) at 6.25 μM (0.2% DMSO final concentration) for increasing periods of time. Control cells were given the vehicle (i.e. DMSO) only. Immediately following the drug or vehicle pretreatment, the cells were challenged with a mixture of xanthine (X) (0.1 mM) and xanthine oxidase (XO) (0.4 U/ml) for 4 h. The control cells were treated with the medium only. After the X/XO challenge, the medium was taken for the measurement of LDH activity, a biochemical index of cellular injury.
(§3) The cells were washed twice with 0.5 ml cold phosphate-buffered saline (PBS), An aliquot (200 μl) of 3% sulfonsalicyclic acid was then added, and the mixture was incubate at 4° C. for 10 min. After centrifuging at 300 g for 15 min at 4° C., the supernatant was used for GSH measurement by an enzymatic method of Griffith (1980).

H9c2 cells [2] = assay: Xanthine/xanthine oxidase-induced cytotoxicity (LDH leakage) in H9c2 cells; settings: X/XO challenge, 6.25 μM
Method: as §1, §2

Hsp25 = Hsp25 expression in H9c2 cells (Western blot); settings: 6.25 μM
Method: as §1
(§4) Cultured H9c2 cells were treated with (−) Schisandrin B, (+) Schisandrin B or (±) Schisandrin B (dissolved in DMSO) at 6.25 μM (0.2% DMSO final concentration) for increasing periods of time. Control cells were given the vehicle (i.e. DMSO) only.
(§5) Immediately following the drug treatment, the cells were washed twice with 0.5 ml cold PBS and treated with 100 μl lysis buffer containing 20 mM Tris HCl, 3 mM EGTA, 1% Triton X-100, 10% glycerol and 2 mM dithiothreitol, pH 7.5, with freshly added protease inhibitors (1 mM phenylmethylsulfonyl fluoride, 0.1 mM benzamide, 5 μg/ml leupeptin, 5 μg aproptinin and 5 μg/ml pepstain A). The mixture was incubated at 4° C. for 15 min with constant shaking. Then the cells were scraped off from the plate, and the extract was transferred to a microcentrifuge tube for centrifugation at 2,400 g for 3 min at 4° C. The resultant supernatant was used for Hsp analysis. Hsp25 and Hsp70 levels was estimated by Western blot analysis using specific antibodies (anti-Hsp25, catalog #SPA-801; anti-Hsp70, catalog #SPA-812) from StressGen (Vancouver, BC, Canada) following SDS-PAGE analysis cell lysates, using a separating gel of 10% acrylamide as described in Ip et. al. [2001]. Hsp25/27 and Hsp70 (human recombinant proteins from StressGen) and actin (bovine muscle from Sigma) were used as markers for reference. […] All immuno-blots were analyzed by densitometry, and the amounts (arbitrary units) of Hsp were normalized with reference to actin levels (arbitrary units) in the sample.

Hsp70 = Hsp70 expression in H9c2 cells (Western blot); settings: 6.25 μM
Method: as §1, §4, §5

H9c2 cells [3] = assay: Menadione-induced toxicity (LDH) in H9c2 cells
Method: as §1
(§6) Cultured H9c2 cells were treated with (−) Schisandrin B, (+) Schisandrin B or (±) Schisandrin B (dissolved in DMSO) at 6.25 μM (0.2% DMSO final concentration) for 16 h. Control cells were given the vehicle (i.e. DMSO) only. Immediately following the drug or vehicle pretreatment, the cells were challenged with menadione (dissolved in ethanol) at 12.5 μM (0.2% ethanol final concentration) for 4 h. The control cells were treated with the medium containing 0.2% ethanol only. After the menadione challenge, the medium was taken for the measurement of LDH activity, an biochemical index of cell injury.

H9c2 cells [4] = assay: Cellular GSH level in H9c2 cells with or without menadione challenge
Method: as §1, §6, §3

[5] = X/XO challenge, 16 h post-dosing
[6] = 0 h post-dosing (unpretreated control)
[7] = MENADIONE 12.5 μM for 4 h, drug 6.25 μM for 16 h
[8] = NON-MENADIONE, 6.25 μM for 16 h

Structure (SMILES): COc1cc2c(c(OC)c1OC)-c1c(cc3c(c1OC)OCO3)CC(C)C(C)C2 (racemic) [(±) Sch B, (±) Schisandrin B]
- GSH Level (H9c2 cells [1]; NON-X/XO, 0 h post-dosing (unpretreated control)): 38.3 ± 1.16 nmol/mg protein
- GSH Level (H9c2 cells [1]; NON-X/XO, 4 h post-dosing): 44.1 ± 3.60 nmol/mg protein
- GSH Level (H9c2 cells [1]; NON-X/XO, 8 h post-dosing): 46.2 ± 1.90 nmol/mg protein
- GSH Level (H9c2 cells [1]; NON-X/XO, 16 h post-dosing): 85.8 ± 2.57 nmol/mg protein
- GSH Level, percent increase vs unpretreated control (0 h) (H9c2 cells [1]; NON-X/XO, 16 h post-dosing): (124%)
- GSH Level (H9c2 cells [1]; NON-X/XO, 24 h post-dosing): 76.6 ± 0.88 nmol/mg protein
- GSH Level (H9c2 cells [1]; NON-X/XO, 48 h post-dosing): 58.8 ± 6.54 nmol/mg protein
- GSH Level (H9c2 cells [1]; X/XO challenge, 0 h post-dosing (unpretreated control)): 14.5 ± 1.06 nmol/mg protein
- GSH Level (H9c2 cells [1]; X/XO challenge, 4 h post-dosing): 15.8 ± 0.49 nmol/mg protein
- GSH Level (H9c2 cells [1]; X/XO challenge, 8 h post-dosing): 16.7 ± 1.32 nmol/mg protein
- GSH Level (H9c2 cells [1]; [5]): 22.3 ± 0.15 nmol/mg protein
- GSH Level, percent increase vs unpretreated control (0 h) (H9c2 cells [1]; [5]): (54%)
- GSH Level (H9c2 cells [1]; X/XO challenge, 24 h post-dosing): 18.9 ± 0.50 nmol/mg protein
- GSH Level (H9c2 cells [1]; X/XO challenge, 48 h post-dosing): 14.3 ± 1.04 nmol/mg protein
- LDH Leakage (H9c2 cells [2]; [6]): 33.9 ± 0.93 U/L
- LDH Leakage (H9c2 cells [2]; 4 h post-dosing): 28.7 ± 1.35 U/L
- LDH Leakage (H9c2 cells [2]; 8 h post-dosing): 22.8 ± 0.45 U/L
- LDH Leakage (H9c2 cells [2]; 16 h post-dosing): 15.8 ± 0.91 U/L
- LDH Leakage, percent protection vs unpretreated control (0 h) (H9c2 cells [2]; 16 h post-dosing): (65%)
- LDH Leakage (H9c2 cells [2]; 24 h post-dosing): 20.1 ± 0.76 U/L
- LDH Leakage (H9c2 cells [2]; 48 h post-dosing): 29.2 ± 0.57 U/L
- Hsp 25 Level (Hsp25; [6]): 1413 ± 76 AU
- Hsp 25 Level (Hsp25; 8 h post-dosing): 1512 ± 39 AU
- Hsp 25 Level (Hsp25; 16 h post-dosing): 1611 ± 93 AU
- Hsp 25 Level (Hsp25; 24 h post-dosing): 1728 ± 101 AU
- Hsp 25 Level, percent increase vs unpretreated control (0 h) (Hsp25; 24 h post-dosing): (24%)
- Hsp 25 Level (Hsp25; 48 h post-dosing): 1332 ± 77 AU
- Hsp 70 Level (Hsp70; [6]): 434 ± 15.5 AU
- Hsp 70 Level (Hsp70; 8 h post-dosing): 389 ± 24.7 AU
- Hsp 70 Level (Hsp70; 16 h post-dosing): 652 ± 23.9 AU
- Hsp 70 Level (Hsp70; 24 h post-dosing): 639 ± 23.4 AU
- Hsp 70 Level, percent increase vs unpretreated control (0 h) (Hsp70; 24 h post-dosing): (47%)
- Hsp 70 Level (Hsp70; 48 h post-dosing): 419 ± 15.4 AU
- LDH (H9c2 cells [3]; [7]): 23.6 ± 0.56 U/ml
- LDH, percent protection vs menadione control (H9c2 cells [3]; [7]): (43%)
- LDH (H9c2 cells [3]; [8]): 14.6 ± 0.67 U/ml
- GSH Level (H9c2 cells [4]; [7]): 28.9 ± 0.66 nmol/mg protein
- GSH Level, percent increase vs menadione control (H9c2 cells [4]; [7]): (56%)
- GSH Level (H9c2 cells [4]; [8]): 46.5 ± 2.58 nmol/mg protein
- GSH Level, percent increase vs non-menadione control (H9c2 cells [4]; [8]): (34%)
